Experimental data reported in ChEMBL document CHEMBL5376005, “Gut Metabolite Indoxyl Sulfate Has Selective Deleterious and Anticancer Effect on Colon Cancer Cells” (J Med Chem, 2023).
Counter-ions that a name gives are not always drawn. Activity calls are given as the source filed them. No cut-off for these calls is given here.

Legend:
HCT-116 [1] = assay: Cytotoxicity against human HCT-116 cells assessed as cell viability at 10 mM measured after 24 hrs by MTT assay (reference value: 100%); format: functional; conditions: HCT-116, 24 h, read-out: Activity
HCT-116 [2] = assay: Cytotoxicity against human HCT-116 cells assessed as cell viability at 10 mM measured after 48 hrs by MTT assay (reference value: 100%); format: functional; conditions: HCT-116, 48 h, read-out: Activity
HCT-116 [3] = assay: Cytotoxicity against human HCT-116 cells assessed as cell viability at 10 mM measured after 72 hrs by MTT assay (reference value: 100%); format: functional; conditions: HCT-116, 72 h, read-out: Activity
HT-29 [4] = assay: Cytotoxicity against human HT-29 cells assessed as cell viability at 10 mM measured after 24 hrs by MTT assay (reference value: 100%); format: functional; conditions: HT-29, 24 h, read-out: Activity
HT-29 [5] = assay: Cytotoxicity against human HT-29 cells assessed as cell viability at 10 mM measured after 48 hrs by MTT assay (reference value: 100%); format: functional; conditions: HT-29, 48 h, read-out: Activity
HT-29 [6] = assay: Cytotoxicity against human HT-29 cells assessed as cell viability at 10 mM measured after 72 hrs by MTT assay (reference value: 100%); format: functional; conditions: HT-29, 72 h, read-out: Activity
HCT-116 [7] = assay: Cytotoxicity against human HCT-116 cells assessed as reduction in cell viability measured after 24 to 72 hrs by MTT assay; format: functional, cell-based; conditions: dose 0.01-10 mM, time 24-72 hrs
HCT-116 [8] = assay: Cytotoxicity against human HCT-116 cells assessed as reduction in cell viability at 0.01 to 10 mM by MTT assay; format: functional, cell-based; conditions: dose 0.01-10 mM, time 24-72 hrs, TDE = time-dependent effect
HT-29 [9] = assay: Cytotoxicity against human HT-29 cells assessed as reduction in cell viability measured after 24 to 72 hrs by MTT assay; format: functional, cell-based; conditions: dose 0.01-10 mM, time 24-72 hrs
HT-29 [10] = assay: Cytotoxicity against human HT-29 cells assessed as reduction in cell viability at 0.01 to 10 mM by MTT assay; format: functional, cell-based; conditions: dose 0.01-10 mM, time 24-72 hrs, TDE = time-dependent effect
HCT-116 [11] = assay: Cytotoxicity against human HCT-116 cells assessed as cell viability at 10 mM measured after 72 hrs by CellTiter-Glo luminescent cell viability assay (reference value: 100%); format: functional; conditions: HCT-116, 72 h, read-out: Activity
HT-29 [12] = assay: Cytotoxicity against human HT-29 cells assessed as cell viability at 10 mM measured after 72 hrs by CellTiter-Glo luminescent cell viability assay (reference value: 100%); format: functional; conditions: HT-29, 72 h, read-out: Activity
HCT-116 [13] = assay: Cytotoxicity against human HCT-116 cells assessed as reduction in cell viability measured after 48 to 72 hrs by CellTiter-Glo luminescent cell viability assay; format: functional, cell-based; conditions: dose 0.01-10 mM, time 48-72 hrs
HT-29 [14] = assay: Cytotoxicity against human HT-29 cells assessed as reduction in cell viability measured after 48 to 72 hrs by CellTiter-Glo luminescent cell viability assay; format: functional, cell-based; conditions: dose 0.01-10 mM, time 48-72 hrs
HCT-116 [15] = assay: Cytotoxicity against human HCT-116 cells assessed as reduction in cell viability at 0.01 to 10 mM by CellTiter-Glo luminescent cell viability assay; format: functional, cell-based; conditions: dose 0.01-10 mM, time 48-72 hrs, TDE = time-dependent effect
HT-29 [16] = assay: Cytotoxicity against human HT-29 cells assessed as reduction in cell viability at 0.01 to 10 mM by CellTiter-Glo luminescent cell viability assay; format: functional, cell-based; conditions: dose 0.01-10 mM, time 48-72 hrs, TDE = time-dependent effect
Cell membrane [17] = assay: Induction of membrane integrity loss in human HCT-116 cells assessed as LDH release in supernatant at 5 mM incubated for 48 hrs by absorbance based assay relative to control; format: subcellular
Cell membrane [18] = assay: Induction of membrane integrity loss in human HCT-116 cells assessed as LDH release in supernatant at 10 mM incubated for 48 hrs by absorbance based assay relative to control
Cell membrane [19] = assay: Induction of membrane integrity loss in human HT-29 cells assessed as LDH release in supernatant at 5 mM incubated for 48 hrs by absorbance based assay relative to control; format: subcellular
Cell membrane [20] = assay: Induction of membrane integrity loss in human HT-29 cells assessed as LDH release in supernatant at 10 mM incubated for 48 hrs by absorbance based assay relative to control; format: subcellular
Cell membrane [21] = assay: Induction of membrane integrity loss in human HCT-116 cells assessed as increase in LDH release in supernatant incubated for 48 hrs by absorbance based assay; format: subcellular; conditions: dose 1.25-10 mM
Cell membrane [22] = assay: Induction of membrane integrity loss in human HT-29 cells assessed as increase in LDH release in supernatant incubated for 48 hrs by absorbance based assay; format: subcellular; conditions: dose 1.25-10 mM
HCT-116 [23] = assay: Induction of apoptosis in human HCT-116 cells assessed as increase in apoptotic cells at 5 mM incubated for 48 hrs by annexin V-FITC/PI staining based flow cytometry analysis (reference value: 3%); format: functional
HCT-116 [24] = assay: Induction of apoptosis in human HCT-116 cells assessed as increase in apoptotic cells at 10 mM incubated for 48 hrs by annexin V-FITC/PI staining based flow cytometry analysis (reference value: 3%); format: functional
HT-29 [25] = assay: Induction of apoptosis in human HT-29 cells assessed as increase in apoptotic cells at 5 mM incubated for 48 hrs by annexin V-FITC/PI staining based flow cytometry analysis (reference value: 3%); format: functional
HT-29 [26] = assay: Induction of apoptosis in human HT-29 cells assessed as increase in apoptotic cells at 10 mM incubated for 48 hrs by annexin V-FITC/PI staining based flow cytometry analysis (reference value: 3%); format: functional
HCT-116 [27] = assay: Induction of morphological changes in human HCT-116 cells assessed as appearance of rounded morphology at 1.25 to 10 mM incubated for 24 to 72 hrs by bright field microscopy analysis; format: functional, cell-based; conditions: dose 1.25-10 mM, time 24-72 hrs
HT-29 [28] = assay: Induction of morphological changes in human HT-29 cells assessed as appearance of rounded morphology at 1.25 to 10 mM incubated for 24 to 72 hrs by bright field microscopy analysis; format: functional, cell-based; conditions: dose 1.25-10 mM, time 24-72 hrs
HCT-116 [29] = assay: Induction of morphological changes in human HCT-116 cells assessed as reduction in cell number at 1.25 to 10 mM incubated for 24 to 72 hrs by bright field microscopy analysis; format: functional, cell-based; conditions: dose 1.25-10 mM, time 24-72 hrs
HT-29 [30] = assay: Induction of morphological changes in human HT-29 cells assessed as reduction in cell number at 1.25 to 10 mM incubated for 24 to 72 hrs by bright field microscopy analysis; format: functional, cell-based; conditions: dose 1.25-10 mM, time 24-72 hrs
HCT-116 [31] = assay: Induction of morphological changes in human HCT-116 cells assessed as detachment from substrate at 1.25 to 10 mM incubated for 24 to 72 hrs by bright field microscopy analysis; format: functional, cell-based; conditions: dose 1.25-10 mM, time 24-72 hrs
HT-29 [32] = assay: Induction of morphological changes in human HT-29 cells assessed as detachment from substrate at 1.25 to 10 mM incubated for 24 to 72 hrs by bright field microscopy analysis; format: functional, cell-based; conditions: dose 1.25-10 mM, time 24-72 hrs
HCT-116 [33] = assay: Induction of morphological changes in human HCT-116 cells assessed as formation of intracellular vesicles at 1.25 to 10 mM incubated for 24 to 72 hrs by bright field microscopy analysis; format: functional, cell-based; conditions: dose 1.25-10 mM, time 24-72 hrs

O=S(=O)(O)Oc1c[nH]c2ccccc12 [INDOXYL SULFATE]
viability at 10000 µM (HCT-116 [1]): 30%
viability at 10000 µM (HCT-116 [2]): 7%
viability at 10000 µM (HCT-116 [3]): 4%
viability at 10000 µM (HT-29 [4]): 41%
viability at 10000 µM (HT-29 [5]): 30%
viability at 10000 µM (HT-29 [6]): 17%
Activity (HCT-116 [7]): Dose-Dependent Effect
Activity (HCT-116 [8]): Tde
Activity (HT-29 [9]): Dose-Dependent Effect
Activity (HT-29 [10]): Tde
viability at 10000 µM (HCT-116 [11]): 3%
viability at 10000 µM (HT-29 [12]): 19%
Activity (HCT-116 [13]): Dose-Dependent Effect
Activity (HT-29 [14]): Dose-Dependent Effect
Activity (HCT-116 [15]): Tde
Activity (HT-29 [16]): Tde
Activity (Cell membrane [17]): 80%
Activity (Cell membrane [18]): 86%
Activity (Cell membrane [19]): 82%
Activity (Cell membrane [20]): 85%
Activity (Cell membrane [21]): Dose-Dependent Effect
Activity (Cell membrane [22]): Dose-Dependent Effect
Activity (HCT-116 [23]): 9%
Activity (HCT-116 [24]): 13%
Activity (HT-29 [25]): 8%
Activity (HT-29 [26]): 12%
Activity (HCT-116 [27]): Active
Activity (HT-29 [28]): Active
Activity (HCT-116 [29]): Active
Activity (HT-29 [30]): Active
Activity (HCT-116 [31]): Active
Activity (HT-29 [32]): Active
Activity (HCT-116 [33]): Active
